According to publication PMC10013850 (Proceedings of the National Academy of Sciences of the …, 2023):
Blank lines part the entries; values can stand above or below the molecule they belong to.

Tests used:
hMfsd2a = target: T1, hMfsd2a (Homo sapiens, UniProt Q8NA29); test: single-cell flow cytometry uptake assay in transfected HEK293 cells; conditions: read-out: apparent Km; 37 °C, 30 min, serum-free DMEM; labelled compound
T1 sequence (Q8NA29 1-530 isoform Q8NA29-2): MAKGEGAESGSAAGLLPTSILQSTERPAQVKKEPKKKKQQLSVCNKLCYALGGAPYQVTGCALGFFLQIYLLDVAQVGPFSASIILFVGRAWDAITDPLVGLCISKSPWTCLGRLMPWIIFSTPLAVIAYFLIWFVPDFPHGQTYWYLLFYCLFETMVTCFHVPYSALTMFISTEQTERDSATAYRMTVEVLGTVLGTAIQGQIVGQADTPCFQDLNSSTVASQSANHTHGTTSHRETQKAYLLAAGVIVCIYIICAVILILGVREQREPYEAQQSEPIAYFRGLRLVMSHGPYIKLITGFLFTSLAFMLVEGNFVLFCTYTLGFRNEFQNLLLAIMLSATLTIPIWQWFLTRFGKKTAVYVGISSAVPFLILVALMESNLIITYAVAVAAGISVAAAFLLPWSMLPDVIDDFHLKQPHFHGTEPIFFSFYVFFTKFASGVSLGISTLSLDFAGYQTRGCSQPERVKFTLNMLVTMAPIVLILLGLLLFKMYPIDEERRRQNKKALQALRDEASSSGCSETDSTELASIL

[1] = substrate: C[N+](C)(C)CCOP(=O)([O-])OC[C@H](O)COC(=O)CCCCCCCCCCCNc1ccc([N+](=O)[O-])c2nonc12; test: cells, lysate or membranes; conditions: 37 °C, 30 min, serum-free DMEM, labelled compound

Km (hMfsd2a): 3 µM
Molecule: LPC-16:1-NBD

B1: hMfsd2a (Homo sapiens) (protein)
chain: T1 sequence (Q8NA29 1-530 isoform Q8NA29-2)
Km [1]: 244 µM
